Test results from patent US20260297679A1, “ASSAYS FOR MONITORING INHIBITION OF RNA HELICASE DHX9” (ACCENT THERAPEUTICS, INC., priority 2023, published 2026).

Experiments:
Format in all cases: cell-based
[1] = test system: breast, ovarian, and lung cell lines; assay: circBRIP1 levels in breast, ovarian, and lung cell lines
Protocol: Cells were plated at pre-determined cell densities in 384-well cell culture plates and incubated overnight in 37° C. at 5% CO2. […] Using TaqMan Multiplex Mastermix and thermal cycle conditions for the Quant Studio Thermocycler, qPCR was carried out as described above to quantify the level of circBRIP1.
(§1) Data analysis was performed by using the QuantStudio Thermocycler software to determine threshold Ct values. ΔCt for circBRIP1 is calculated by normalizing the target gene Ct to the GAPDH housekeeping gene Ct for each sample.
The inhibition activity (% Vehicle) is calculated by the following formulas, whereas: […]
An EC50 was then calculated using a 4-parameter logistic nonlinear regression model in Scigilian Analyze or GraphPad Prism, floating both the top and bottom parameters. […]

human PBMCs = assay: proliferation of human PBMCs (Cell-Titer Glo 2.0); conditions: Compound 1 0.01 μM to 10 μM, 10 days; FIG. 8B
Protocol: Next, the proliferation of PMBCs was examined following treatment with DHX9 inhibitor using the following assay.
Human PBMCs were thawed from a frozen cryotube in a 37° C. water bath and transferred to a flask with medium X-Vivo 15 supplemented with 5% Fetal Bovine Serum (FBS), 1% PenStrep, and 1% Glutamax. Flasks were incubated at 37 C for 30 minutes. PBMCs were harvested from flask and counted. PBMCs were diluted in medium and added to 96 well plates at 100,000 PBMCs per well. A stimulus mixture containing IL-15 at 1 ng/well, IL-21 at 5 ng/well, and CD40L at 5 ng/well was added to each well. Test compounds were prepared in DMSO stock solution and serially diluted. Compound (0.1% final DMSO concentration) was added to each well. DMSO was used as a negative control (high control, HC) and staurosporine was used a positive control (low control, LC). Plates were incubated at 37 C for 0, 2, 4, 6, 8, 10 days. Every other day, medium was replenished with stimulus and diluted compounds.
At each CTG time point, plate was removed from incubator and Cell-Titer Glo 2.0 reagent was added to each well according to manufacturer's (Promega) protocol and detected on an Envision. The inhibition activity was calculated following the formula below:
% Inhibition=100×(ReadoutHC−ReadoutSample)/(ReadoutHC−ReadoutLC)
PBMCs were exposed to Compound 1 at concentrations ranging from 0.01 μM to 10 μM for 10 days. […]

human PBMC = assay: circular and linear BRIP1 mRNA in fresh human PBMC (whole blood treated) by qPCR; conditions: 24 hours, varying concentrations, FIGS. 9A-9D
Protocol: This study was conducted to evaluate the circular format of BRIP1 mRNA in fresh human PBMC cells by qPCR.
Human whole blood was obtained from Research Blood Components. Blood of each donor was aliquoted into vacutainer tubes containing Acid Citrate Dextrose (ACD).
Test compounds were prepared in DMSO stock solution and serially diluted. Compound (0.1% final DMSO concentration) was added to vacutainer tubes containing human whole blood. Tubes were placed in tube rotator and incubated at 37 C for 24 hours.
PBMCs were isolated from human whole blood after compound treatment by density gradient centrifugation using Ficoll-Paque Plus. RNA was extracted from PBMCs using RNeasy Plus Kits according to the manufacturer's (Qiagen) protocol. cDNA was reverse transcribed using RT^2 First Strand Kit according to the manufacturer's (Qiagen) protocol. […]
as §1, with “circBRIP1 or linBRIP1 was” for “circBRIP1 is”, “sample. The inhibition activity was calculated by the following formula, whereas: […]” for “sample.”

For `Cc1cccnc1-c1csc(C(=O)Nc2cc(Cl)cc(NS(C)(=O)=O)c2)c1` [Compound 1, N-(3-chloro-5-methanesulfonamidophenyl)-4-(3-methylpyridin-2-yl)thiophene-2-carboxamide], the circBRIP1 levels [1] was “upregulated in breast, ovarian, and lung cell lines”, the “proliferation of PBMCs” value (human PBMCs) was “did not inhibit proliferation of PBMCs” and the “human circBRIP1 in PBMCs of donor blood” value (human PBMC) was “induced the presence of human circBRIP1 in a dose-responsive manner”. For the same molecule, the “linear BRIP1 in PBMCs of donor blood” value (human PBMC) was “not significantly changed”.
